Results on 20 compounds are retold here after patent publication US9045445B2, “Glycine transporter-1 inhibitors, methods of making them, and uses thereof” (Albany Molecular Research, Inc., priority 2010, dated 2015).

In test [1] the target is T1, glycine transporter-2 (GlyT-2) (Homo sapiens, UniProt Q9Y345).
T1 construct: expressed in transfected cells
T1 sequence (Q9Y345 1-797): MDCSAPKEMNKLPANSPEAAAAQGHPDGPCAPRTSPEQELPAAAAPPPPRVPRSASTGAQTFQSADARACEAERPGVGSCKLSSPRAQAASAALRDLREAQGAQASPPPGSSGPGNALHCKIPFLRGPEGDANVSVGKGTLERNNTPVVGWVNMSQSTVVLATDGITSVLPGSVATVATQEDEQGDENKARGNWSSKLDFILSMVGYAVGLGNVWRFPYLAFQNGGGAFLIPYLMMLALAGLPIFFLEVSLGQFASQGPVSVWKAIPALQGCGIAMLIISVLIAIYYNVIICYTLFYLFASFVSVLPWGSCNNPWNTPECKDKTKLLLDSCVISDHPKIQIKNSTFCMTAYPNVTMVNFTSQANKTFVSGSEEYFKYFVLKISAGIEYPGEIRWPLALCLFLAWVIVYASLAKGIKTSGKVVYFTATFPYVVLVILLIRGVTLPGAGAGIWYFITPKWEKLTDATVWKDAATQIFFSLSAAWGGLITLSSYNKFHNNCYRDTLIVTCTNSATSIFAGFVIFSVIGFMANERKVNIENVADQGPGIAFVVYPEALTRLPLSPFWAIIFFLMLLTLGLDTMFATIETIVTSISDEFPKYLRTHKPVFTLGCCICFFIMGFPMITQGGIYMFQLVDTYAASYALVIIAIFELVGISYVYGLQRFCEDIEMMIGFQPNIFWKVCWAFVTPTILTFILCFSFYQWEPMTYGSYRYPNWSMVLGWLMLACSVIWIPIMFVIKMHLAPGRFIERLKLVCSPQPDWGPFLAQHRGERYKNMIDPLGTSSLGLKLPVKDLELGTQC
The test is described as follows: [14C]glycine uptake assay in HEK-GlyT-2 transfected cells. The format is cell-based. To be noted: HEK-GlyT-2 cells.

For test [2], the target named is T2, glycine transporter-1 (GlyT-1) (Homo sapiens, UniProt P48067).
T2 construct: JAR cells (ATCC#HTB-144), which endogenously express GlyT-1; host or cells: JAR human choriocarcinoma cells
T2 sequence (P48067 1-706): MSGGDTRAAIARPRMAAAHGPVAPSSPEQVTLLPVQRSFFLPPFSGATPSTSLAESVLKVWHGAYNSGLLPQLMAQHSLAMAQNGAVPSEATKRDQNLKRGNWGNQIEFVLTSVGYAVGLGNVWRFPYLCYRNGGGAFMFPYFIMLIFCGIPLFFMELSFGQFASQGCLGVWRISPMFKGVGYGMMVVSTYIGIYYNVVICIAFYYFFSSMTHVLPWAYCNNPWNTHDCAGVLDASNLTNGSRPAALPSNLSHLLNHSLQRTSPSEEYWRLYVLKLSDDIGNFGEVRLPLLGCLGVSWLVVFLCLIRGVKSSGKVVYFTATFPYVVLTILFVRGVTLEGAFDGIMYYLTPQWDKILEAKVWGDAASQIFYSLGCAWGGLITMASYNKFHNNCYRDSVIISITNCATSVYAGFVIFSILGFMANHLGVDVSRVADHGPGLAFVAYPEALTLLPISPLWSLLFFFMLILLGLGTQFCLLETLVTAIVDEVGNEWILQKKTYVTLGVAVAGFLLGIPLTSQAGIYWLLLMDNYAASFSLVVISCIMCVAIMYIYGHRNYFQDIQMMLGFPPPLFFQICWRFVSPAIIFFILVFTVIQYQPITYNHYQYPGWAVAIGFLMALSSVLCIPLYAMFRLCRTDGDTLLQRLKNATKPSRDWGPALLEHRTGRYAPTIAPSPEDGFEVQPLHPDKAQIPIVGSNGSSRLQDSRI
The test is described as follows: [14C]glycine uptake assay in JAR cells endogenously expressing GlyT-1 (scintillation proximity). Conditions: JAR cells, [14C]glycine 5 μM, 3 hour incubation; read-out: GlyT-1 IC50. The format is cell-based. In outline: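 Human choriocarcinoma JAR cells (endogenous GlyT-1) attached overnight, then pre-incubated 10 min at room temperature with compound in pH 7.4 Hepes uptake buffer containing 5 mM alanine and 0.75% DMSO. Uptake of 5 μM [14C]glycine over 3 h at 37 °C read by scintillation proximity; IC50 from four-parameter fit of nine-point curves.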
On the technique in general: SPA uses beads or plates that emit light when radiolabelled molecules are held near them.

Structures can show the parent of a compound that is named as a salt. Where only a bound is given, the exact number is not on record here.

Take `Cn1cc(S(=O)(=O)N2CCN(C3(CNC(=O)c4ccc(C(F)(F)F)cc4F)CCC(F)(F)CC3)CC2)nn1` [compound 232, N-((4,4-Difluoro-1-(4-(1-methyl-1H-1,2,3-triazol-4-ylsulfonyl)piperazin-1-yl)cyclohexyl)methyl)-2-fluoro-4-(trifluoromethyl)benzamide Hydrochloride]: the IC50 is > 75000 nM in test [1] and 6 nM in test [2].
For `CCCS(=O)(=O)N1CCN(C2(CNC(=O)c3ccccc3OC(F)(F)F)CCC(F)(F)CC2)CC1` [compound 141, N-((4,4-Difluoro-1-(4-(propylsulfonyl)piperazin-1-yl)cyclohexyl)methyl)-2-(trifluoromethoxy) benzamide Hydrochloride], in that order: > 75000 nM and 48 nM.
Turning to `CCCS(=O)(=O)N1CCN(C2(CNC(=O)c3c(C)cc(F)cc3OC)CCOCC2)CC1` [compound 121, 4-Fluoro-2-methoxy-6-methyl-N-((4-(4-(propylsulfonyl)piperazin-1-yl)tetrahydro-2H-pyran-4-yl)methyl)benzamide Hydrochloride], the results for the IC50 in test [1] and in test [2] were > 45000 nM and 191 nM, respectively.
With `CCCS(=O)(=O)N1CCN(C2(CNC(=O)c3c(Cl)cccc3Cl)CCOCC2)CC1` [compound 119, 2,6-Dichloro-N-((4-(4-(propylsulfonyl)piperazin-1-yl)tetrahydro-2H-pyran-4-yl)methyl)benzamide Hydrochloride], the values for the IC50 in test [1] and in test [2] were > 45000 nM and 276 nM, respectively.
In the same order, the values of `CS(=O)(=O)N1CCN(C2(CNC(=O)c3c(N)cccc3Cl)CCCCC2)CC1` [compound 90, 2-Amino-6-chloro-N-((1-(4-(methylsulfonyl)piperazin-1-yl)cyclohexyl)methyl) benzamide Hydrochloride] are > 75000 nM and 339 nM.
In the same order, the values of `Cn1cc(S(=O)(=O)N2CCN(C3(CNC(=O)c4ccc(Cl)cc4Cl)CCC(F)(F)CC3)CC2)nn1` [compound 228, 2,4-Dichloro-N-((4,4-difluoro-1-(4-(1-methyl-1H-l,2,3-triazol-4-ylsulfonyl)piperazin-1-yl)cyclohexyl)methyl) benzamide Hydrochloride] are > 75000 nM and 1 nM.
As to `Cn1cc(S(=O)(=O)N2CCN(C3(CNC(=O)c4c(F)cc(F)cc4F)CCC(F)(F)CC3)CC2)nn1` [compound 234, N-((4,4-Difluoro-1-(4-(1-methyl-1H-1,2,3-triazol-4-ylsulfonyl)piperazin-1-yl)cyclohexyl)methyl)-2,4,6-trifluorobenzamide Hydrochloride], the IC50 is > 75000 nM in test [1] and 4 nM in test [2].
On to `CCCS(=O)(=O)N1CCN(C2(CNC(=O)c3c(C)cc(F)cc3OC)CCC(F)(F)CC2)CC1` [compound 137, N-((4,4-Difluoro-1-(4-(propylsulfonyl)piperazin-1-yl)cyclohexyl)methyl)-4-fluoro-2-methoxy-6-methylbenzamide Hydrochloride], for which the IC50 is > 75000 nM in test [1] and 28 nM in test [2].
Regarding `CC(NC(=O)c1ccc(C(F)(F)F)cc1C(F)(F)F)C1(N2CCN(S(=O)(=O)c3cn(C)nn3)CC2)CCC(F)(F)CC1` (stereo not shown) [compound 225, N-(1-(4,4-Difluoro-1-(4-(1-methyl-1H-1,2,3-triazol-4-ylsulfonyl)piperazin-1-yl)cyclohexyl)ethyl)-2,4-bis(trifluoromethyl) benzamide Hydrochloride], the IC50 in test [1] was > 75000 nM; in test [2] it was 28 nM.
In the case of `Cn1cnc(S(=O)(=O)N2CCN(C3(CNC(=O)c4ccc(F)cc4Cl)CCCCC3)CC2)c1` [compound 101, 2-Chloro-4-fluoro-N-((1-(4-(1-methyl-1H-imidazol-4-ylsulfonyl)piperazin-1-yl)cyclohexyl)methyl) benzamide Hydrochloride], the figures for the IC50 in test [1] and in test [2] were > 75000 nM and 2 nM, respectively.
In the same order, the values of `Cc1cc(F)ccc1C(=O)NCC1(N2CCN(S(=O)(=O)c3cn(C)cn3)CC2)CCCCC1` [compound 102, 4-Fluoro-2-methyl-N-((1-(4-(1-methyl-1H-imidazol-4-ylsulfonyl)piperazin-1-yl)cyclohexyl)methyl) benzamide Hydrochloride] are > 75000 nM and 10 nM.
For `CCCS(=O)(=O)N1CCN(C2(CNC(=O)c3c(Cl)cc(C(F)(F)F)cc3Cl)CCC(F)(F)CC2)CC1` [compound 258, 2,6-Dichloro-N-((4,4-difluoro-1-(4-(propylsulfonyl)piperazin-1-yl)cyclohexyl)methyl)-4-(trifluoromethyl) benzamide Hydrochloride], in that order: > 75000 nM and 9 nM.
For `Cn1cc(S(=O)(=O)N2CCN(C3(CNC(=O)c4c(F)cccc4F)CCOCC3)CC2)nn1` [compound 128, 2,6-Difluoro-N-((4-(4-(1-methyl-1H-1,2,3-triazol-4-ylsulfonyl)piperazin-1-yl)tetrahydro-2H-pyran-4-yl)methyl)benzamide Hydrochloride], in that order: > 75000 nM and 83 nM.
As for `COc1cc(F)cc(C)c1C(=O)NCC1(N2CCN(S(=O)(=O)c3cn(C)nn3)CC2)CCCC1` [compound 112, 4-Fluoro-2-methoxy-6-methyl-N-((1-(4-(1-methyl-1H-1,2,3-triazol-4-ylsulfonyl)piperazin-1-yl)cyclopentyl)methyl) benzamide Hydrochloride], the IC50 in test [1] was > 75000 nM; in test [2] it was 14 nM.
In the same order, the values of `O=C(NCC1(N2CCC(S(=O)(=O)CC3CC3)CC2)CCCCC1)c1ccc(Cl)cc1Cl` [compound 200, 2,4-Dichloro-N-((1-(4-(cyclopropylmethyl-sulfonyl)piperidin-1-yl)cyclohexyl)methyl) benzamide Hydrochloride] are > 75000 nM and 1080 nM.
For `CCCS(=O)(=O)N1CCN(C2(CNC(=O)c3ccc(C(F)(F)F)cc3Cl)CCC(F)(F)CC2)C(C)C1` (stereo not shown) [compound 257, 2-Chloro-N-((4,4-difluoro-1-(2-methyl-4-(propylsulfonyl)piperazin-1-yl)cyclohexyl)methyl)-4-(trifluoromethyl) benzamide Hydrochloride], in that order: > 75000 nM and 18 nM.
For `CCCS(=O)(=O)N1CCN(C2(CNC(=O)c3ccccc3Cl)CCC(F)(F)CC2)CC1` [compound 139, 2-Chloro-N-((4,4-difluoro-1-(4-(propylsulfonyl)piperazin-1-yl)cyclohexyl)methyl) benzamide Hydrochloride], in that order: > 75000 nM and 54 nM.
For “4-Chloro-N-((1-(4- (propylsulfonyl)piperazin- 1-yl)cycloheptyl)methyl) benzamide Hydrochloride [compound 58]”, the IC50 worked out at 53000 nM in test [1] and 265 nM in test [2].
For `CCCS(=O)(=O)N1CCN(C2(CNC(=O)c3cc(Cl)ccc3Cl)CCCCC2)CC1` [compound 32, 2,5-Dichloro-N-((1-(4-(propylsulfonyl)piperazin-1-yl)cyclohexyl)methyl) benzamide Hydrochloride], in that order: > 75000 nM and 71 nM.
For `CCCS(=O)(=O)N1CCN(C2(CNC(=O)c3ccc(F)cc3Cl)CCCCC2)CC1` [compound 12, 2-Chloro-4-fluoro-N-((1-(4-(propylsulfonyl)piperazin-1-yl)cyclohexyl)methyl) benzamide Hydrochloride], in that order: > 75000 nM and 63 nM.

Usually IC50 stands for the concentration needed to halve the response being measured.
